Assay results as given in patent publication US12612354B2, “Cyclopentenones derivatives and their use as antibiotics” (Centre National de la Recherche Scientifique (CNRS), priority 2020, dated 2026).
≈ marks a conversion by molar mass, not a printed value. Where two headings read alike, the source gives them in different places.

Columns and labels:
Format in all cases: cell-based
[1] = system: Staphylococcus aureus ATCC 25923; test: Kirby-Bauer disk diffusion susceptibility test (inhibition zone); conditions: S. aureus ATCC 25923; 12.5, 25, 50 and 100 μg per disc; FIG. 1
Experimental: (§1) FIG. 1: Kirby-Bauer Disk diffusion susceptibility test on Staphylococcus aureus ATCC 25923 with compounds Ia, Ib and Ic at 12.5, 25, 50 and 100 μg and the reference gentamicin at 10 μg; left: graph representing the diameter of the inhibition zone as a function of each sample; right: photo of the petri dish illustrating the inhibition zones with Ic at 12.5, 25, 50 and 100 μg.
(§2) Pathogenic bacteria were revived by streaking bacteria on 100 mm Petri dishes containing the suitable medium recommended by ATCC protocol, overnight at 30 to 37° C.: Luria-Bertani Broth (LB, Difco, Thermo Fisher Scientific Inc.), Tryptic Soy Broth (TSB, Difco, Thermo Fisher Scientific Inc.), Nutrient Broth (NB, Difco, Thermo Fisher Scientific Inc.), supplemented with 2% of agar (Granulated Agar, Difco, Thermo Fisher Scientific Inc.).
(§3) For each pathogen, several colonies were collected with a loop and transferred in 5 ml of sterile NB medium and incubated on a rotary shaker (130 rpm) overnight at 30 to 37° C.
(§4) 150 mm Nutrient Broth Agar plates were swabbed with inocula and kept for 15 min for absorption. Pre-sterilized six-millimeter Whatman No. 1 discs were placed in the Petri dishes and 12.5, 25, 50 and 100 μg of the test compounds in DMSO (10 mg/ml) were applied to the sterile disc papers. The standard drug gentamycin (10 μg) was used as a positive reference standard to determine the sensitivity of each bacterial species and DMSO as a negative control. Then the plates were incubated at 30° or 37° C. for 24 h and inhibition diameters were measured.
Compounds Ia to Ic have also been tested on the following pathogenic bacteria in order to evaluate their inhibition efficacy by the Petri dish inhibition zone method: • Staphylococcus aureus ATCC 25923—Gram-positive (compounds Ia, Ib and Ic tested) • Enterobacter cloacae ATCC 13047—Gram-negative (compounds Ia and Ib tested) • Acinetobacter baumannii ATCC 19606—Gram-negative (compounds Ib and Ic tested) • Escherichia coli ATCC 25922—Gram-negative (compounds Ia and Ib tested) […]

[2] = system: Enterobacter cloacae ATCC 13047; test: as above; conditions: 12.5, 25, 50 and 100 μg per disc, FIG. 2
Experimental: as §1, with “2:” for “1:”, “Enterobacter cloacae” for “Staphylococcus aureus”, “13047” for “25923”, “Ia and” for “Ia,”, “Ib” for “Ib and Ic”, “Ia” for “Ic”
as §2, §3
as §4, with “The standard drug gentamycin (10 μg) was used as a positive reference standard to determine the sensitivity of each bacterial species and DMSO as a negative control.” left out, “measured. […]” for “measured.”

[3] = system: Acinetobacter baumannii ATCC 19606; test: as above; conditions: 12.5, 25, 50 and 100 μg per disc, FIG. 3
Experimental: (§5) FIG. 3: Kirby-Bauer Disk diffusion susceptibility test on Acinetobacter baumanii ATCC 19606 with compounds Ib and Ic at 12.5, 25, 50 and 100 μg and the reference gentamicin at 10 μg; left: graph representing the diameter of the inhibition zone as a function of each sample; right: photo of the petri dish illustrating the inhibition zones with Ib and Ic at 12.5, 25, 50 and 100 μg.
as §2, §3
as §4, with “The standard drug gentamycin (10 μg) was used as a positive reference standard to determine the sensitivity of each bacterial species and DMSO as a negative control.” left out, “measured. […]” for “measured.”

[4] = system: Escherichia coli ATCC 25922; test: as above; conditions: for inhibition activity (inhibition zone): 12.5, 25, 50 and 100 μg per disc, FIG. 4; for inhibition of growth at 100 µg/disc: ATCC25922, 24 h, 100 μg of compound
Experimental: as §5, with “FIG. 4:” for “FIG. 3:”, “on Escherichia coli” for “on Acinetobacter baumanii”, “ATCC 25922” for “ATCC 19606”, “compounds Ia and” for “compounds”, “Ib” for “Ib and Ic”, “with Ia” for “with Ib and Ic”
as §2, §3, §4
Compounds Ia to Ic have also been tested on the following pathogenic bacteria in order to evaluate their inhibition efficacy by the Petri dish inhibition zone method: • Staphylococcus aureus ATCC 25923—Gram-positive (compounds Ia, Ib and Ic tested) • Enterobacter cloacae ATCC 13047—Gram-negative (compounds Ia and Ib tested) • Acinetobacter baumannii ATCC 19606—Gram-negative (compounds Ib and Ic tested) • Escherichia coli ATCC 25922—Gram-negative (compounds Ia and Ib tested)
This technique enables to visualize the potential for inhibiting the growth of target pathogenic bacteria. A dose-response study at 12.5, 25, 50 and 100 μg of each compound has been carried out, comparing the inhibition zones with 10 μg gentamicin. […] Best results are obtained for Gran negative bacteria, especially Enterobacter cloacae as represented on FIG. 2.
Compounds Ib, Ic, Ij, Ik, Il, Im, Ih, Ig, Ii, Id and If have also been tested on the following pathogenic bacteria in order to evaluate their inhibition efficacy by the Petri dish inhibition zone method: • Micrococcus luteus ATCC10240; • Bacillus subtilis ATCC6633; • Escherichia coli ATCC 25922.
The percentage of inhibition growth at 100 μg of each tested compound has been determined.

[5] = system: Bacillus subtilis ATCC6633; test: Petri dish inhibition zone method, % inhibition of growth; conditions: 24 h, 100 μg of compound
Experimental: (§6) Pathogenic bacteria were revived by streaking bacteria on 100 mm Petri dishes containing the suitable medium recommended by ATCC protocol, overnight at 30 to 37° C.: Luria-Bertani Broth (LB, Difco, Thermo Fisher Scientific Inc.), Tryptic Soy Broth (TSB, Difco, Thermo Fisher Scientific Inc.), Nutrient Broth (NB, Difco, Thermo Fisher Scientific Inc.), supplemented with 2% of agar (Granulated Agar, Difco, Thermo Fisher Scientific Inc.). For each pathogen, several colonies were collected with a loop and transferred in 5 ml of sterile NB medium and incubated on a rotary shaker (130 rpm) overnight at 30 to 37° C. 150 mm Nutrient Broth Agar plates were swabbed with inocula and kept for 15 min for absorption. Pre-sterilized six-millimeter Whatman No. 1 discs were placed in the Petri dishes and 12.5, 25, 50 and 100 μg of the test compounds in DMSO (10 mg/ml) were applied to the sterile disc papers. The standard drug gentamycin (10 μg) was used as a positive reference standard to determine the sensitivity of each bacterial species and DMSO as a negative control. Then the plates were incubated at 30° or 37° C. for 24 h and inhibition diameters were measured. Compounds Ib, Ic, Ij, Ik, Il, Im, Ih, Ig, Ii, Id and If have also been tested on the following pathogenic bacteria in order to evaluate their inhibition efficacy by the Petri dish inhibition zone method: • Micrococcus luteus ATCC10240; • Bacillus subtilis ATCC6633; • Escherichia coli ATCC 25922. The percentage of inhibition growth at 100 μg of each tested compound has been determined.

[6] = system: Micrococcus luteus ATCC10240; test: as above; conditions: 24 h, 100 μg of compound
Experimental: as §6

[7] = system: Staphylococcus aureus ATCC 25923; test: Minimum inhibitory concentration (MIC), microbroth dilution assay; conditions: Mueller-Hinton broth
Experimental: as §2, with “Inc.)” for “Inc.).”
(§7) For each pathogen, several colonies were collected with a loop and transfered in 10 ml of sterile Mueller-Hinton broth (Sigma) medium and incubated on a rotary shaker (130 rpm) […] at 30 to 37° C. The OD at 600 nm was measured and adjusted to 0.5 OD, then the solution was diluted 400-fold to have the appropriate inoculum
(§8) The antimicrobial susceptibility was carried out by microbroth dilution assay. Tests were performed on 96-well plates with 100 μL of Mueller-Hinton broth (Sigma) medium final volume and a final bacterial concentration of 5.10^5 CUF/ml. The tested compounds were solubilized in dimethyl sulfoxide (DMSO) given 10 mg/mL (then expressed in μM) stock solution. The stock solutions were diluted from 100 μg/ml to 0.195 μg/ml for testing.
(§9) Compounds Ia to Ie have also been tested on Staphylococcus aureus ATCC 25923 strain and Staphylococcus aureus BAA-1766 (MRSA) strain (both Gram-positive) by using the screening method of the measurement of MIC (minimum inhibitory concentration).
(§10) This technique enables to determine the minimum concentration that causes total inhibition of the growth of the target pathogen.

[8] = system: Staphylococcus aureus BAA-1766 (MRSA); test: as above; conditions: S. aureus BAA-1766 (MRSA), Mueller-Hinton broth
Experimental: as §2, with “Inc.)” for “Inc.).”
as §7, §8, §9, §10

[9] = Staphylococcus aureus, ATCC25923, S. aureus ATCC 25923, read-out: MIC

Structure (SMILES)	inhibition activity (inhibition zone) [1]	inhibition activity (inhibition zone) [2]	inhibition activity (inhibition zone) [3]	inhibition activity (inhibition zone) [4]	inhibition of growth at 100 µg/disc [4]	inhibition of growth at 100 µg/disc [5]	inhibition of growth at 100 µg/disc [6]	MIC [7, 9]	MIC [8]	MIC ([7]; S. aureus ATCC 25923)
O=C1C=C[C@H](O)[C@H]1c1ccc(Cl)cc1 (racemic) [Ib]	inhibition activity	inhibition activity	inhibition activity	inhibition activity	60%	51%	68%	12.5 µg/mL (≈ 59.9 µM)	18.8 µg/mL (≈ 89.9 µM)	–
O=C1C=C[C@H](O)[C@H]1c1ccccc1Cl (racemic) [Ic]	inhibition activity	–	inhibition activity	–	35%	31%	33%	6.25 µg/mL (≈ 30 µM)	37.5 µg/mL (≈ 180 µM)	6.26 µg/mL (≈ 30 µM)
O=C1C=C[C@@](O)(CO)[C@H]1c1ccc(Cl)cc1 (racemic) [Id]	–	–	–	–	45%	30%	0%	12 µg/mL (≈ 50.3 µM)	12 µg/mL (≈ 50.3 µM)	–
CC(=O)O[C@H]1C=CC(=O)[C@@H]1c1ccccc1 (racemic) [Ie]	–	–	–	–	–	–	–	6.25 µg/mL (≈ 28.9 µM)	6.25 µg/mL (≈ 28.9 µM)	–
O=C1C=C[C@@](O)(CO)[C@H]1c1ccccc1 (racemic) [If]	–	–	–	–	57%	0%	21%	–	–	–
O=C1C=C[C@@](O)(CO)[C@H]1c1ccc(F)cc1 (racemic) [Ig]	–	–	–	–	55%	18%	0%	–	–	–
COc1ccc([C@H]2C(=O)C=C[C@@]2(O)CO)cc1 (racemic) [Ih]	–	–	–	–	55%	0%	0%	–	–	–
O=C1C=C[C@@](O)(CO)[C@H]1c1ccc2c(c1)OCO2 (racemic) [Ii]	–	–	–	–	45%	0%	0%	–	–	–
COc1ccc(C2C(=O)C=C[C@@H]2O)cc1 (mixture of isomers) [Ij]	–	–	–	–	62%	61%	39%	–	–	–
COc1cccc(C2C(=O)C=C[C@@H]2O)c1 (mixture of isomers) [Ik]	–	–	–	–	42%	48%	23%	–	–	–
O=C1C=C[C@H](O)C1c1ccc2ccccc2c1 (mixture of isomers) [Il]	–	–	–	–	40%	57%	50%	–	–	–
O=C1C=C[C@H](O)C1c1cccc2ccccc12 (mixture of isomers) [Im]	–	–	–	–	47%	56%	51%	–	–	–
O=C1C=C[C@H](O)[C@H]1c1ccccc1 (relative stereo) [Ia, (4S*,5R*)-4-hydroxy-5-phenyl-cyclopent-2-en-1-one]	inhibition activity	inhibition activity	–	inhibition activity	–	–	–	25 µg/mL (≈ 144 µM)	> 50 µg/mL	–
